Data as given in paper PMC5218887 (Neurochemistry International, 2017).
Entries after “also recorded” stand apart in the source; their conditions may differ. Non-standard residues stand in square brackets, D forms with d. Primed or numbered codes have the meaning given here. No end group written: not given here. pS′ = not defined here

Experiments:
human GPR139 [1] = target: T1, human GPR139 (Homo sapiens, UniProt Q6DWJ6); experiment: Fluo-4 Ca2+-assay, agonist testing on CHO-GPR139; format: cell-based; details: for agonist activity on GPR139: CHO-GPR139, result in words; for relative Emax ± SEM: compared to Emax of cmp1a
T1 sequence (Q6DWJ6 1-353): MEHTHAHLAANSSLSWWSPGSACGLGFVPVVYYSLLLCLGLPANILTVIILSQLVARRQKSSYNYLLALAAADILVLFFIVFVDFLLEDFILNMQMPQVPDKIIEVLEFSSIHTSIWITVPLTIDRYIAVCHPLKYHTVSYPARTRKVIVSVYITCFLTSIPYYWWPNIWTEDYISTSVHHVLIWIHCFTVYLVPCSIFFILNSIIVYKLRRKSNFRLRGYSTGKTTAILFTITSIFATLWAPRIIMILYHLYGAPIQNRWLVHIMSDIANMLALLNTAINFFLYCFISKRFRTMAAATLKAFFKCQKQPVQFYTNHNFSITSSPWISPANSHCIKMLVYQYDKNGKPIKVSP

human GPR139 [2] = target: T1, human GPR139; experiment: Fluo-4 Ca2+-assay, antagonist testing against EC80; format: cell-based; details: against EC80 (800 nM) of cmp1a; data not shown
GPR139 [3] = details: rats; ref Liu et al., 2015; cited from earlier work
GPR139 [4] = details: read-out: EC50 on GPR139; ref Isberg et al., 2014; cited from earlier work
[5] = target: T2, human muscarinic acetylcholine receptor M1 (Homo sapiens, UniProt P11229); experiment: Fluo-4 Ca2+-assay on CHO-M1; format: cell-based; details: CHO-M1, specificity test; data not shown
T2 sequence (P11229 1-460): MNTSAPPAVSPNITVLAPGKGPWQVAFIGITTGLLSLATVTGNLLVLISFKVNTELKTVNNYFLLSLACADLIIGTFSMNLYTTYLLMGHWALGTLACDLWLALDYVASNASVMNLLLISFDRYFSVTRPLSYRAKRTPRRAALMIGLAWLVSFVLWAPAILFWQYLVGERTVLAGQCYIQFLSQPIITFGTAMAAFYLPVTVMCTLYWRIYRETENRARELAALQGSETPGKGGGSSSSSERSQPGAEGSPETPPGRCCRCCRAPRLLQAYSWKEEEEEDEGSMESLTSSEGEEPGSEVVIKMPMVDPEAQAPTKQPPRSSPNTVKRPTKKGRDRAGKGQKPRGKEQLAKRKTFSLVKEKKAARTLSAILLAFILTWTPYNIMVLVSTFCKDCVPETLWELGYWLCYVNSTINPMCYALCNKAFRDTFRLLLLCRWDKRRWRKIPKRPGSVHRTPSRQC

MC4R = MC4R (Homo sapiens, UniProt P32245); experiment: cAMP accumulation assay; format: cell-based; details: tested in the highest concentration; normalized to Emax of α-MSH
MC4R, sequence (P32245 whole entry, species assumed): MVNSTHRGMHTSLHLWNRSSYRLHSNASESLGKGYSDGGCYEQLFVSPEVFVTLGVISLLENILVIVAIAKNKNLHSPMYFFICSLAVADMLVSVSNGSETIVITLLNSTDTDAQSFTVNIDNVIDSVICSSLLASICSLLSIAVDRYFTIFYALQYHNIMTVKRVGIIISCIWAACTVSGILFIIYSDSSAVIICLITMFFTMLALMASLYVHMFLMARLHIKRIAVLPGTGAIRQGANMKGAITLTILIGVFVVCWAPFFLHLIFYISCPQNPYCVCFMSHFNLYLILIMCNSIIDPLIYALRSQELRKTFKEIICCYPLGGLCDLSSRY

| agonist activity on GPR139 (human GPR139 [1]) | antagonist activity on GPR139 (human GPR139 [2]) | Molecule | other results |
| --- | --- | --- | --- |
| No agonist or antagonist activity | No agonist or antagonist activity | 26RFa |  |
| No agonist or antagonist activity | No agonist or antagonist activity | [Arg^8]-vasopressin |  |
| No agonist or antagonist activity | No agonist or antagonist activity | melanin-concentrating hormone [MCH] |  |

Continued, molecule first:

| Molecule | agonist activity on GPR139 (human GPR139 [1]) | antagonist activity on GPR139 (human GPR139 [2]) | other results |
| --- | --- | --- | --- |
| N=C(N)NCCC[C@H](NC(=O)[C@H](Cc1ccccc1)NC(=O)[C@@H](N)Cc1c[nH]cn1)C(=O)N[C@@H](Cc1c[nH]c2ccccc12)C(=O)O [HFRW] |  |  | Emax (human GPR139 [1]; read-out: relative Emax ± SEM): 64 ± 6% |
| C[C@H](NC(=O)CNC(=O)c1cccc(Cl)c1)c1ccccc1 [JNJ-63533054] |  |  | spontaneous locomotion activity (GPR139 [3]): decreased spontaneous locomotion activity |
| N[C@@H](Cc1ccccc1)C(=O)O [L-Phe, L-phenylalanine] |  |  | EC50 (GPR139 [4]): 320 µM |
| N[C@@H](Cc1c[nH]c2ccccc12)C(=O)O [L-Trp, L-tryptophan] |  |  | EC50 (GPR139 [4]): 220 µM |
| CSCC[C@H](NC(=O)[C@H](CO)NC(=O)[C@H](Cc1ccc(O)cc1)NC(=O)[C@H](CO)NC(C)=O)C(=O)N[C@@H](CCC(=O)O)C(=O)N[C@@H](Cc1c[nH]cn1)C(=O)N[C@@H](Cc1ccccc1)C(=O)N[C@@H](CCCNC(=N)N)C(=O)N[C@@H](Cc1c[nH]c2ccccc12)C(=O)NCC(N)=O [cap-α-MSH1-10] |  |  | Emax at 14 µM (human GPR139 [1]; read-out: relative Emax ± SEM): 31 ± 4% |
| COc1cc(OC)cc(C(=O)NNC(=O)Nc2cccc3ccccc23)c1 [compound 1a, 2-(3,5-dimethoxybenzoyl)-N-(naphthalen-1-yl)hydrazine-1-carboxamide] |  |  | EC80 on GPR139 (human GPR139 [1]; concentration used for antagonist testing): 0.8 µM |
| CSCC[C@H](NC(=O)[C@H](CCCNC(=N)N)NC(=O)[C@H](Cc1ccc(O)cc1)NC(=O)[C@@H]1CCCN1C(=O)CNC(=O)[C@H](CCC(=O)O)NC(=O)[C@H](CC(=O)O)NC(=O)[C@H](CCCCN)NC(=O)[C@H](CCCCN)NC(=O)[C@H](CCC(=O)O)NC(=O)[C@H](C)N)C(=O)N[C@@H](CCC(=O)O)C(=O)N[C@@H](Cc1c[nH]cn1)C(=O)N[C@@H](Cc1ccccc1)C(=O)N[C@@H](CCCNC(=N)N)C(=O)N[C@@H](Cc1c[nH]c2ccccc12)C(=O)NCC(=O)N[C@@H](CO)C(=O)N1CCC[C@H]1C(=O)N1CCC[C@H]1C(=O)N[C@@H](CCCCN)C(=O)N[C@@H](CC(=O)O)C(=O)O [β-MSH] | showed agonist activity |  | fold more potent on GPR139 than L-Trp and L-Phe (human GPR139 [1]; compared with L-Trp (EC50 = 220 μM) and L-Phe (EC50 = 320 μM)): 20–120 fold; Emax (human GPR139 [1]; read-out: relative Emax ± SEM): 101 ± 11%; activity on the muscarinic acetylcholine M1 receptor [5]: none of these peptides showed any activity |
| Ac-SYSMEHFRW-NH2 [cap-α-MSH1-9] |  |  | Emax at 61 µM (human GPR139 [1]; read-out: relative Emax ± SEM): 53 ± 9%; response of α-MSH on MC4R (MC4R): 50% |
| MEHFRWG [α-MSH4-10] |  |  | relative Emax ± SEM (human GPR139 [1]; at 101 μM (highest concentration tested, no plateau)): 13 ± 2 (at 101 μM) % |
| SY[pSer]SMEHFRWGKPV-NH2 (N-terminal SY[pSer]; C-terminal amide) [α-MSHP-Ser] | neither of the two peptides showed any agonist or antagonist activity | neither of the two peptides showed any agonist or antagonist activity |  |
| SY[pSer]SMEHFRWGKPVGKK (SY[pS′]SMEHFRWGKPVGKK) [ACTH1-16,P-Ser] | neither of the two peptides showed any agonist or antagonist activity | neither of the two peptides showed any agonist or antagonist activity |  |
| cap-α-MSH4-10: α-MSH4-10 (MEHFRWG), N-terminal acetylated and C-terminal amidated |  |  | relative Emax ± SEM (human GPR139 [1]; at 16 μM (highest concentration tested, no plateau)): 21 ± 8 (at 16 μM) % |
| oxytocin | No agonist or antagonist activity | No agonist or antagonist activity |  |
| thyrotropin releasing hormone [TRH] | No agonist or antagonist activity | No agonist or antagonist activity |  |
| γ1-melanocyte stimulating hormone [γ1-MSH] | No agonist or antagonist activity; also recorded: did not show any activity | No agonist or antagonist activity |  |
